These results are taken from the Kinase Knowledgebase extract (Sharma et al. 2016).

“And” between values parts separate entries of the source, which are not always exact repeats. Identical values can stand only once.

A word on the IC50: it is the concentration needed to halve the response being measured. A high value points to weaker potency in that assay.

For the first assay, the target named is EGFR (UniProt P00533).
Sequence of EGFR (P00533 whole entry, looked up): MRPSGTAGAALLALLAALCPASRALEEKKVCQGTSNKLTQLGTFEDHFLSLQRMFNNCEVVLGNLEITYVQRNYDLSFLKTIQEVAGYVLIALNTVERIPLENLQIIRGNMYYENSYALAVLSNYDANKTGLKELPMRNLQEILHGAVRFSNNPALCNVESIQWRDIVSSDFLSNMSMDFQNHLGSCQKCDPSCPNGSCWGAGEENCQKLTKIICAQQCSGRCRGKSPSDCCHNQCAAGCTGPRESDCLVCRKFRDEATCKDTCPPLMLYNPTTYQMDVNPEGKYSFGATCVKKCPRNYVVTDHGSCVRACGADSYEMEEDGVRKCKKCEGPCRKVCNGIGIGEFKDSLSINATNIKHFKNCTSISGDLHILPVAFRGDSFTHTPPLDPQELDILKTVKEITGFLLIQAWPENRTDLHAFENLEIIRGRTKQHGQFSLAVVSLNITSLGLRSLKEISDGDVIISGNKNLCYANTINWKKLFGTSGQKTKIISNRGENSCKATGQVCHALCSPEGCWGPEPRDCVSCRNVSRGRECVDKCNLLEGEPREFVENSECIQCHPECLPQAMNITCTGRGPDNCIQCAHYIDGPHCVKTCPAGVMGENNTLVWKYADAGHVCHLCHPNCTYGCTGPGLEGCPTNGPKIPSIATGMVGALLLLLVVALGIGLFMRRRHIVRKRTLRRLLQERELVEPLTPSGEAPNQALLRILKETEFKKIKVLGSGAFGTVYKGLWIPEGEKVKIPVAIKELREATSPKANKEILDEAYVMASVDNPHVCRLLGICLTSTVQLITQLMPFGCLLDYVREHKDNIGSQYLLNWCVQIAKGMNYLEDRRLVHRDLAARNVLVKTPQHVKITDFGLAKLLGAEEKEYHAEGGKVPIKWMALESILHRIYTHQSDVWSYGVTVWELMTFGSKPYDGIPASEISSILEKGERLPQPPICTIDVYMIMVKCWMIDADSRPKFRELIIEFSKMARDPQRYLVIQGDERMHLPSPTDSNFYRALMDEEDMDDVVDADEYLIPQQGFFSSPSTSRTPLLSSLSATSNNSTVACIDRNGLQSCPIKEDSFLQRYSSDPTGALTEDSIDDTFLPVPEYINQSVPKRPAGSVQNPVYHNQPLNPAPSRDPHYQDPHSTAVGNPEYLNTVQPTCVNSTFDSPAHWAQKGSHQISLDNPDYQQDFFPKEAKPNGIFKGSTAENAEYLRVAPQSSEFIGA
Take `COc1ccc(NC(=O)c2cc(C(C)(C)C)nn2Cc2ccccc2)c(OC)n1`: the IC50 was more than 100 µM.
On the same count and under the same terms, with `CCOc1cccc(-c2ccc3c(c2)NC(=O)/C3=C\c2ccc(C)s2)c1` the figure was more than 50 µM; with `COc1cccc(-c2ccc3c(c2)NC(=O)/C3=C\c2[nH]c(C)cc2C)c1`, > 50 µM and 27.3 µM; with `COc1cccc(-c2ccc3c(c2)NC(=O)/C3=C\c2ccc(N3CCN(C=O)CC3)cc2)c1`, more than 50 µM.
Same read-out and setting: the result for `Cc1cccnc1NC(=O)c1cc(C(C)(C)C)nn1Cc1ccccc1` reads 53.4 µM; that for `COc1ccc(-c2ccccc2)cc1NC(=O)c1cc(C(C)(C)C)nn1Cc1ccccc1`, more than 50 µM; that for `CC(C)(C)c1cc(C(=O)Nc2cccc(C(F)(F)F)c2)n(Cc2ccccc2)n1`, 53.4 µM.
The same measure, in the same setting: the result for `O=C1Nc2cc(-c3ccccc3)ccc2/C1=C/c1cc2c([nH]1)CCCC2` reads more than 50 µM.
Compound `Cc1cnc2ccccc2c1NC(=O)c1cc(C(C)(C)C)nn1Cc1ccccc1` displayed an IC50 of 21.2 µM.
Take `COc1cccc(-c2cc(NC(=O)c3cc(C(C)(C)C)nn3Cc3ccccc3)ccc2OC)c1`: the IC50 is more than 50 µM.
On the same count and under the same terms, the result for `Cc1ccnc(NC(=O)c2cc(C(C)(C)C)nn2Cc2ccccc2)c1` reads 50.1 µM; that for `CC(=O)Nc1ccc2c(c1)C(=O)c1cc(NC(=O)c3cc(C(C)(C)C)nn3Cc3ccccc3)ccc1-2`, 4.4 µM.
The same measure, in the same setting: with `O=C1Nc2cc(-c3ccccc3)ccc2/C1=C/c1cnc[nH]1` the figure was more than 50 µM; with `Cc1cc(C)c(NC(=O)c2cc(C(C)(C)C)nn2Cc2ccccc2)cn1`, 69.6 µM.
The compound `COc1ccc(-c2ccc3c(c2)NC(=O)/C3=C\c2[nH]c3c(c2C)CCCC3)cc1` came in with an IC50 of more than 50 µM.
Still for that read-out and setting: with `CC(C)(C)c1cc(C(=O)Nc2cccc(-c3ccccc3)c2)n(Cc2ccccc2)n1` the figure was more than 50 µM; with `COc1ccccc1-c1ccc2c(c1)NC(=O)/C2=C\c1cc2c([nH]1)CCCC2`, 34.1 µM; with `COc1cccc(-c2ccc3c(c2)NC(=O)/C3=C\c2cc3c([nH]2)CCCC3)c1`, 31.8 µM and > 50 µM.
Still for that read-out and setting: with `CC(C)(C)c1cc(C(=O)Nc2ccc(C(F)(F)F)cn2)n(Cc2ccccc2)n1` the figure was 46.8 µM; with `Cc1ccc(Cn2nc(C)cc2C(=O)Nc2cccc(C(F)(F)F)c2)cc1`, 6.3 µM and 9.8 µM; with `COc1ccccc1-c1ccc2c(c1)NC(=O)/C2=C\c1[nH]c2c(c1C)CCCC2`, more than 50 µM.
Still for that read-out and setting: the result for `CC(C)(C)c1cc(C(=O)Nc2cnc3ccccc3c2)n(Cc2ccccc2)n1` reads 10.2 µM; that for `CCOc1cccc(-c2ccc3c(c2)NC(=O)/C3=C\c2cnc[nH]2)c1`, more than 50 µM.
`CC(C)(C)c1cc(C(=O)Nc2cccnc2)n(Cc2ccccc2)n1` gave an IC50 of more than 100 µM.
On the same count and under the same terms, the result for `CC(C)(C)c1cc(C(=O)Nc2ccccn2)n(Cc2ccccc2)n1` reads more than 100 µM; that for `CCOc1cccc(-c2ccc3c(c2)NC(=O)/C3=C\c2cc(C(C)C)c(OC)c(C(C)C)c2)c1`, 19.6 µM.
Regarding `CC(C)(C)c1cc(C(=O)Nc2ccc(O)c(-c3cccc(-c4ccccc4)c3)c2)n(Cc2ccccc2)n1`, the IC50 is more than 50 µM.
Still for that read-out and setting: the result for `COc1ccc(NC(=O)c2cc(C(C)(C)C)nn2Cc2ccccc2)cc1-c1ccccc1` reads more than 50 µM; that for `CCc1cc(CC)c(/C=C2\C(=O)Nc3cc(-c4ccccc4)ccc32)[nH]1`, more than 50 µM.
The compound `COc1ccc(-c2ccc3c(c2)NC(=O)/C3=C\c2[nH]c(C)cc2C)cc1` displayed an IC50 of more than 50 µM.
On the same count and under the same terms, with `COc1cccc(-c2ccc3c(c2)NC(=O)/C3=C\c2[nH]c3c(c2C)CCCC3)c1` the figure was more than 50 µM; with `CC(C)(C)c1cc(C(=O)c2nccc3ccccc23)n(Cc2ccccc2)n1`, 22.5 µM.
For the compound `CCOc1cccc(-c2ccc3c(c2)NC(=O)/C3=C\c2cc3c([nH]2)CCCC3)c1`, the IC50 is more than 50 µM.
Still for that read-out and setting: with `COc1cccc(-c2ccc3c(c2)NC(=O)/C3=C\c2[nH]c3c(c2CCC(=O)O)CCCC3)c1` the figure was 37.1 µM; with `COc1cccc(-c2ccc3c(c2)NC(=O)/C3=C\c2cnc[nH]2)c1`, > 50 µM and 27.4 µM; with `CC(C)(C)c1cc(C(=O)Nc2ccc(C(F)(F)F)cc2)n(Cc2ccccc2)n1`, 15.6 µM.
On the same count and under the same terms, the result for `COc1cccc(-c2ccc3c(c2)NC(=O)/C3=C\c2cc(C(C)C)c(OC)c(C(C)C)c2)c1` reads 13.7 µM; that for `CC(C)(C)c1cc(C(=O)Nc2cc3ccccc3cn2)n(Cc2ccccc2)n1`, more than 100 µM.
For the compound `CC(C)(C)c1cc(C(=O)Nc2cccc3c2C(=O)c2ccccc2-3)n(Cc2ccccc2)n1`, the IC50 was more than 50 µM.
On the same count and under the same terms, the result for `CC(C)(C)c1cc(C(=O)Nc2ccccc2C(F)(F)F)n(Cc2ccccc2)n1` reads 46.8 µM; that for `Cc1ccc(/C=C2\C(=O)Nc3cc(-c4ccccc4)ccc32)s1`, more than 50 µM; that for `Cc1ccc(Cn2nc(C)cc2C(=O)Nc2ccc(C(F)(F)F)cc2)cc1`, 7.1 µM and 9.8 µM.
On the same count and under the same terms, the result for `CC(C)(C)c1cc(C(=O)Nc2ccc3oc(=O)c4ccccc4c3c2)n(Cc2ccccc2)n1` reads 43 µM; that for `COc1ccc(-c2ccc3c(c2)NC(=O)/C3=C\c2cnc[nH]2)cc1`, more than 50 µM.
`CCn1c2ccccc2c2cc(NC(=O)c3cc(C(C)(C)C)nn3Cc3ccccc3)ccc21` showed an IC50 of more than 50 µM.
Same read-out and setting: with `CC(C)(C)c1cc(C(=O)Nc2ccc3c(c2)OCO3)n(Cc2ccccc2)n1` the figure was 50.1 µM; with `CCOc1cccc(-c2ccc3c(c2)NC(=O)/C3=C\c2[nH]c(C)cc2C)c1`, more than 50 µM.
Turning to `CCOc1cccc(-c2ccc3c(c2)NC(=O)/C3=C\c2[nH]c(CC)cc2CC)c1`, the IC50 is more than 50 µM.
The same measure, in the same setting: the result for `CC(C)(C)c1cc(C(=O)Nc2c(F)c(F)nc(F)c2F)n(Cc2ccccc2)n1` reads 26 µM.
Same read-out and setting: with `COc1ccc(-c2ccc3c(c2)NC(=O)/C3=C\c2ccc(C)s2)cc1` the figure was more than 50 µM; with `CC(C)(C)c1cc(C(=O)Nc2ccncc2)n(Cc2ccccc2)n1`, 28.2 µM.
On the same count and under the same terms, with `CCc1cc(CC)c(/C=C2\C(=O)Nc3cc(-c4cccc(OC)c4)ccc32)[nH]1` the figure was > 50 µM and 30.9 µM.
`CCc1cc(CC)c(/C=C2\C(=O)Nc3cc(-c4ccc(OC)cc4)ccc32)[nH]1` came in with an IC50 of more than 50 µM.
The same measure, in the same setting: with `Cc1cc(C)c(/C=C2\C(=O)Nc3cc(-c4ccccc4)ccc32)[nH]1` the figure was more than 50 µM; with `COc1ccc(-c2ccc3c(c2)NC(=O)/C3=C\c2cc3c([nH]2)CCCC3)cc1`, more than 50 µM.

Another assay concerns the target EGFR (UniProt P00533). The source holds these as a separate data set.
As to `CCOc1cccc(-c2ccc3c(c2)NC(=O)/C3=C\c2ccc(C)s2)c1`, the IC50 is more than 100 µM.
On the same count and under the same terms, with `COc1cccc(-c2ccc3c(c2)NC(=O)/C3=C\c2[nH]c(C)cc2C)c1` the figure was more than 100 µM; with `COc1cccc(-c2ccc3c(c2)NC(=O)/C3=C\c2ccc(N3CCN(C=O)CC3)cc2)c1`, more than 100 µM.
On to `COc1ccc(-c2ccc3c(c2)NC(=O)/C3=C\c2[nH]c3c(c2CCC(=O)O)CCCC3)cc1`, for which the IC50 was more than 100 µM.
For `O=C1Nc2cc(-c3ccccc3)ccc2/C1=C/c1cc2c([nH]1)CCCC2`, the IC50 was more than 100 µM.
The same measure, in the same setting: with `O=C1Nc2cc(-c3ccccc3)ccc2/C1=C/c1cnc[nH]1` the figure was more than 100 µM; with `COc1ccc(-c2ccc3c(c2)NC(=O)/C3=C\c2[nH]c3c(c2C)CCCC3)cc1`, more than 100 µM.
Same read-out and setting: with `COc1ccccc1-c1ccc2c(c1)NC(=O)/C2=C\c1cc2c([nH]1)CCCC2` the figure was more than 100 µM; with `COc1cccc(-c2ccc3c(c2)NC(=O)/C3=C\c2cc3c([nH]2)CCCC3)c1`, more than 100 µM.
Still for that read-out and setting: with `COc1ccccc1-c1ccc2c(c1)NC(=O)/C2=C\c1[nH]c2c(c1C)CCCC2` the figure was more than 100 µM.
